{"source": "patent US6884906B2", "about": "“Menthyl half acid ester derivatives, processes for preparing same, and uses thereof for their cooling/refreshing effect in consumable materials” (International Flavors & Fragrances Inc., priority 2003, dated 2005)", "format_in_all_cases": "in vivo", "key": {"[1]": {"system": "oral cavity", "test": "Sensory evaluation in cherry-flavored hard candy", "conditions": "0.2 grams added to recipe yielding 200 grams of hard candy; versus control candy", "experimental": "The following formulation was prepared: […]\nThe above formulation was added to a stainless steel pot. With constant mixing, the formulation temperature was raised to 295° F. The pot was then removed from the heat, and 0.3 grams of cherry flavor containing the ingredients in equal amounts benzaldehyde, tolyl aldehyde, ethyl acetate, maltol, Davana oil and methyl heptinyl carbonate and 1.2 grams of citric acid was added. The resulting liquid candy was then deposited into molds, and the molds containing the liquid candy were cooled to room temperature, yielding 200 grams of finished hard candy. […] A second candy sample was prepared using the above recipe modified by the addition of 0.2 grams of menthyl succinamide prepared according to the procedure of Example I (A)."}, "[2]": {"system": "oral cavity", "test": "Flavor and sensory characteristics at use level of 25 ppm in water"}, "[3]": {"system": "oral cavity", "test": "Sensory evaluation in fruity citrus chewing gum", "conditions": "1 part by weight added to gum of 100 parts chicle, 4 parts flavor, 300 parts sucrose, 100 parts corn syrup; versus control gum", "experimental": "100 parts by weight of chicle were mixed with 4 parts by weight of a fruity citrus gum flavor which was a blend of lemon oil, ethyl butyrate, ethyl acetate, benzaldehyde, citral and alpha ionone in equal portions. To the resulting mixture, 300 parts by weight of sucrose and 100 parts by weight of corn syrup were added. Mixing was effected in a ribbon blender with jacketed sidewalls, manufactured by Baker Perkins Co. The resultant chewing gum blend was then manufactured into strips 1 inch in width and 0.1 inches in thickness. These strips were cut into lengths of 3 inches each. […] A second gum sample was prepared using the above recipe with the addition of 1 part by weight of menthyl N,N-dimethyl succinamide, prepared according to Example I(C)."}}, "data": [{"compound": "CC(C)[C@@H]1CC[C@@H](C)C[C@H]1OC(=O)CCC(N)=O", "note": "[Example I(A), Butanoic acid, 4-amino-4-oxo, (5-methyl-2-(1-methylethyl)cyclohexyl)ester, (1R-(1α,2β,5α))-]", "values": [{"measurement": "cooling effect in hard candy", "setting": "[1]", "value": "moderately strong and substantive cooling effect"}, {"measurement": "Cooling Duration", "setting": "[2]", "value": 7.5, "unit": "min"}, {"measurement": "Onset Time", "setting": "[2]", "value": "8 to 25", "unit": "s"}]}, {"compound": "CNC(=O)CCC(=O)O[C@@H]1C[C@H](C)CC[C@H]1C(C)C", "note": "[Example I(B), Butanoic acid, 4-methylamino-4-oxo, (5-methyl-2-(1-methylethyl)cyclohexyl)ester, (1R-(1α,2β,5α))]", "values": [{"measurement": "Cooling Duration", "setting": "[2]", "value": 7, "unit": "min"}, {"measurement": "Onset Time", "setting": "[2]", "value": "15 to 25", "unit": "s"}]}, {"compound": "CC(C)[C@@H]1CC[C@@H](C)C[C@H]1OC(=O)CCC(=O)N(C)C", "note": "[Example I(C), Butanoic acid, 4-dimethylamino-4-oxo, (5-methyl-2-(1-methylethyl)cyclohexyl)ester, (1R-(1α,2β,5α))-]", "values": [{"measurement": "Cooling Duration", "setting": "[2]", "value": 11.25, "unit": "min"}, {"measurement": "Onset Time", "setting": "[2]", "value": 25, "unit": "s"}, {"measurement": "cooling effect in chewing gum", "setting": "[3]", "value": "pleasant and substantive cooling effect on the tongue and roof of the mouth"}]}, {"compound": "CC(C)[C@@H]1CC[C@@H](C)C[C@H]1OC(=O)CCC(=O)NCCO", "note": "[Example I(E), Butanoic acid, 4-(2-hydroxyethyl)amino-4-oxo, (5-methyl-2-(1-methylethyl)cyclohexyl) ester, (1R-(1α,2β,5α))-]", "values": [{"measurement": "Cooling Duration", "setting": "[2]", "value": 15, "unit": "min"}, {"measurement": "Onset Time", "setting": "[2]", "value": 11, "unit": "s"}]}, {"compound": "CC(C)[C@@H]1CC[C@@H](C)C[C@H]1OC(=O)CCCCC(=O)O", "note": "[Example I(I), Hexanedioic acid, mono(5-methyl-2-(1-methylethyl)cyclohexyl) ester, (1R-(1α,2β,5α))-]", "values": [{"measurement": "Cooling Duration", "setting": "[2]", "value": 10.5, "unit": "min"}, {"measurement": "Onset Time", "setting": "[2]", "value": 34, "unit": "s"}]}, {"compound": "CCNC(=O)CCC(=O)O[C@@H]1C[C@H](C)CC[C@H]1C(C)C", "note": "[I(D), Butanoic acid, 4-ethylamino-4-oxo, (5-methyl-2-(1-methylethyl)cyclohexyl)ester, (1R-(1α,2β,5α))-]", "values": [{"measurement": "Cooling Duration", "setting": "[2]", "value": 7, "unit": "min"}, {"measurement": "Onset Time", "setting": "[2]", "value": 35, "unit": "s"}]}, {"compound": "Pentanoic acid, 4-methylamino-4-oxo, (5-methyl-2-(1-methylethyl)cyclohexyl) ester, (1R-(1α,2β,5α))- [Example I(G)]", "values": [{"measurement": "Cooling Duration", "setting": "[2]", "value": 5, "unit": "min"}, {"measurement": "Onset Time", "setting": "[2]", "value": 20, "unit": "s"}]}]}
